According to patent publication US11827628B2, “Compositions and methods for inhibition of the JAK pathway” (Rigel Pharmaceuticals, Inc., priority 2005, dated 2023):
Where a name gives a salt, the structure may show the parent alone.

Test system: Primary human T-cells
Experiment: Primary Human T-Cell Proliferation Assay Stimulated with IL-2 (CellTiter-Glo)
Format: cell-based
Details: Homo sapiens, T-cell, primary human T-cells stimulated with IL-2, proliferation; read-out: IC50, Example 42
Outline: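 IC50 derived from CellTiter-Glo ATP signal after 72 hours of IL-2-driven proliferation at 37° C. Cells: primary human T-cells from blood, stimulated beforehand 3-4 days on anti-CD3/anti-CD28 with IL-2, then rested from IL-2 before compound exposure in duplicate; IL-2-free wells served as unstimulated control.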

Row | Structure (SMILES) | IC50
1 | COc1ccc(Nc2nc(Nc3ccc(C)c(S(N)(=O)=O)c3)ncc2F)nc1N [VII-9, N2-(3-Aminosulfonyl-4-methylphenyl)-N4-[2-amino-3-methoxypyrid-6-yl]-5-fluoro-2,4-pyrimidinediamine] | 2720 nM
2 | NS(=O)(=O)c1cccc(Nc2ncc(F)c(Nc3ccc(CCCCF)cc3)n2)c1 [VI-92, N2-(3-Aminosulfonylphenyl)-5-fluoro-N4-[4-(4-fluorobutyl)phenyl]-2,4-pyrimidinediamine] | 107 nM
3 | Cc1ccc2cc(Nc3nc(Nc4ccc(C)c(S(N)(=O)=O)c4)ncc3F)ccc2n1 [VII-71, N2-(3-Aminosulfonyl-4-methylphenyl)-5-fluoro-N4-(2-methylquinolin-6-yl)-2,4-pyrimidinediamine] | 569 nM
4 | Cc1ccc(Nc2ncc(F)c(Nc3ccc(CO)cc3)n2)cc1S(N)(=O)=O [VI-52, N2-(3-Aminosulfonyl-4-methylphenyl)-5-fluoro-N4-(4-hydroxymethylphenyl)-2,4-pyrimidinediamine] | 162 nM
5 | Cc1ccc(Nc2ncc(F)c(Nc3cccc(-c4cnco4)c3)n2)cc1S(N)(=O)=O [IV-2, N2-(3-Aminosulfonyl-4-methylphenyl)-5-fluoro-N4-[3-(1,3-oxazol-5-yl)phenyl]-2,4-pyrimidinediamine] | 362 nM
6 | Cc1ccc(Nc2ncc(F)c(Nc3ccc4c(c3)N(CC#N)C(=O)CS4)n2)cc1S(N)(=O)=O [Compound V-13, N2-(3-Aminosulphonyl4-methylphenyl)-5-fluoro-N4-(3-oxo-4-cyanomethyl-benzo[1,4]thiazin-6-yl)-2,4-pyrimidinediamine] | 468 nM
7 | CN1C(=O)CSc2ccc(Nc3nc(Nc4cccc(S(N)(=O)=O)c4)ncc3F)cc21 [VII-49, N2-(3-Aminosulfonylphenyl)-5-fluoro-N4-(4-methyl-3-oxo-benz[1,4]thiazin-6-yl)-2,4-pyrimidinediamine] | 54.9 nM
8 | COc1ccc(Nc2nc(Nc3cccc(S(N)(=O)=O)c3)ncc2F)cc1Cl [VI-107, N2-(3-Aminosulfonylphenyl)-5-fluoro-N4-(4-methoxy-3-chlorophenyl]-2,4-pyrimidinediamine] | 74.1 nM
9 | N#CCN1C(=O)COc2ccc(Nc3nc(Nc4cccc(S(N)(=O)=O)c4)ncc3F)cc21 [Compound V-7, N2-(3-Aminosulphonylphenyl)-5-fluoro-N4-(3-oxo-4-cyanomethyl-benz[1,4]oxazin-6-yl]-2,4-pyrimidinediamine] | 127 nM
10 | Cc1ccc(Nc2ncc(F)c(Nc3ccc4c(c3)N(CC#N)C(=O)CO4)n2)cc1S(N)(=O)=O [Compound V-8, N2-(3-Aminosulphonyl-4-methylphenyl)-5-fluoro-N4-[3-oxo-4-cyanomethyl-benz[1,4]oxazin-6-yl]-2,4-pyrimidinediamine] | 225 nM
11 | Cc1ccc(Nc2ncc(F)c(Nc3ccc(CCCF)cc3)n2)cc1S(N)(=O)=O [VI-84, N2-(3-Aminosulfonyl-4-methylphenyl)-5-fluoro-N4-[4-(3-fluoropropyl)phenyl]-2,4-pyrimidinediamine] | 514 nM
12 | COc1ccc(Nc2nc(Nc3ccc(C(C)C)c(S(N)(=O)=O)c3)ncc2F)cc1Cl [VI-45, N2-(3-Aminosulfonyl-4-iso-propylphenyl)-N4-(3-chloro-4-methoxy-phenyl)-5-fluoro-2,4-pyrimidinediamine] | 1330 nM
13 | NS(=O)(=O)c1cccc(Nc2ncc(F)c(Nc3cccc(-c4cnco4)c3)n2)c1 [IV-1, N2-(3-Aminosulfonylphenyl)-5-fluoro-N4-[3-(1,3-oxazol-5-yl)phenyl]-2,4-pyrimidinediamine] | 287 nM
14 | C#CCNc1ccc(Nc2nc(Nc3ccc(C)c(S(N)(=O)=O)c3)ncc2F)cc1 [VI-65, N2-(3-Aminosulfonyl-4-methylphenyl)-5-fluoro-N4-[4-(prop-2-ynylamino)phenyl]-2,4-pyrimidinediamine] | 209 nM
15 | NS(=O)(=O)c1cccc(Nc2ncc(F)c(Nc3ccc(CCCF)cc3)n2)c1 [VI-83, N2-(3-Aminosulfonylphenyl)-5-fluoro-N4-[4-(3-fluoropropyl)phenyl]-2,4-pyrimidinediamine] | 293 nM
16 | Cc1ccc(Nc2ncc(F)c(Nc3cccc4cccnc34)n2)cc1S(N)(=O)=O [VII-77, N2-(3-Aminosulfonyl-4-methylphenyl)-5-fluoro-N4-(quinolin-8-yl)-2,4-pyrimidinediamine] | 1780 nM
17 | CN1C(=O)CSc2ccc(Nc3nc(Nc4ccc(S(N)(=O)=O)cc4)ncc3F)cc21 [VII-48, N2-(4-Aminosulfonylphenyl)-5-fluoro-N4-(4-methyl-3-oxo-benz[1,4]thiazin-6-yl)-2,4-pyrimidinediamine] | 336 nM
18 | NS(=O)(=O)c1cccc(Nc2ncc(F)c(Nc3ccc4sccc4c3)n2)c1 [VII-58, N2-(3-Aminosulfonylphenyl)-N4-(benzothiophen-5-yl)-5-fluoro-2,4-pyrimidinediamine] | 265 nM
19 | C#CCOc1ccc(Nc2nc(Nc3ccc(C)c(S(N)(=O)=O)c3)ncc2F)cc1F [VI-60, N2-(3-Aminosulfonyl-4-methylphenyl)-5-fluoro-N4-[3-fluoro-4-(prop-2-ynyloxy)phenyl]-2,4-pyrimidinediamine] | 187 nM

Row | Structure (SMILES) | IC50
20 | Cc1ccc(Nc2ncc(F)c(Nc3ccc4c(CC#N)c[nH]c4c3)n2)cc1S(N)(=O)=O [IX-11, N2-(3-Aminosulfonyl-4-methylphenyl)-N4-(3-cyanomethyl-1H-indol-6-yl)-5-fluoro-2,4-pyrimidinediamine] | 215 nM
21 | C#CCOc1ccc(Nc2nc(Nc3ccc(C)c(S(=O)(=O)NC)c3)ncc2F)cc1 [VI-68, 5-Fluoro-N2-(4-methyl-3-methylaminosulfonylphenyl)-N4-[4-(prop-2-ynyloxy)phenyl]-2,4-pyrimidinediamine] | 742 nM
22 | Cc1cnc(Nc2cccc(S(N)(=O)=O)c2)nc1Nc1ccc2c(c1)NC(=O)CO2 [VII-32, N2-(3-Aminosulphonylphenyl)-5-methyl-N4-(3-oxo-benz[1,4]oxazin-6-yl)-2,4-pyrimidinediamine] | 32.1 nM
23 | Cc1ccc(Nc2ncc(F)c(Nc3ccc(C)c(S(N)(=O)=O)c3)n2)cc1S(N)(=O)=O [VI-114, N2,N4-Bis-(3-aminosulfonyl-4-methylphenyl)-5-fluoro-2,4-pyrimidinediamine] | 2240 nM
24 | COc1ccc(Nc2nc(Nc3cccc(S(N)(=O)=O)c3)ncc2F)cn1 [VII-6, N2-(3-Aminosulfonylphenyl)-5-fluoro-N4-(2-methoxypyrid-5-yl)-2,4-pyrimidinediamine] | 2000 nM
25 | NS(=O)(=O)c1cc(Nc2ncc(F)c(Nc3ccc(O)cc3)n2)ccc1F [VI-100, N2-(3-Aminosulfonyl-4-fluorophenyl)-5-fluoro-N4-(4-hydroxyphenyl)-2,4-pyrimidinediamine] | 74.3 nM
26 | N#CCN1C(=O)COc2ccc(Nc3nc(Nc4ccc(S(N)(=O)=O)cc4)ncc3F)cc21 [Compound V-6, N2-(4-Aminosulphonylphenyl)-5-fluoro-N4-(3-oxo-4-cyanomethyl-benz[1,4]oxazin-6-yl]-2,4-pyrimidinediamine] | 70.8 nM
27 | NS(=O)(=O)c1ccc(Nc2ncc(F)c(Nc3ccc(CCCCO)cc3)n2)cc1 [VI-88, N2-(4-Aminosulfonylphenyl)-5-fluoro-N4-[4-(4-hydroxybutyl)phenyl]-2,4-pyrimidinediamine] | 1190 nM
28 | Cc1ccc(Nc2ncc(F)c(Nc3ccc(Cl)c(Cl)c3)n2)cc1S(N)(=O)=O [VI-6, N2-(3-Aminosulfonyl-4-methylphenyl)-N4-(3,4-dichlorophenyl)-5-fluoro-2,4-pyrimidinediamine] | 1450 nM
29 | C#CCOc1ccc(Nc2nc(Nc3ccc(C(C)C)c(S(N)(=O)=O)c3)ncc2F)cc1 [VI-63, N2-[3-Aminosulfonyl-4-(2-propyl)phenyl]-5-fluoro-N4-[4-(prop-2-ynyloxy)phenyl]-2,4-pyrimidinediamine] | 363 nM
30 | N#CCc1c[nH]c2cc(Nc3nc(Nc4cccc(S(N)(=O)=O)c4)ncc3F)ccc12 [IX-12, N2-(3-Aminosulfonylphenyl)-N4-(3-cyanomethyl-1H-indol-6-yl)-5-fluoro-2,4-pyrimidinediamine] | 117 nM
31 | Cc1ccc(Nc2ncc(F)c(Nc3ccc4ncccc4c3)n2)cc1S(N)(=O)=O [VII-69, N2-(3-Aminosulfonyl-4-methylphenyl)-5-fluoro-N4-(quinolin-6-yl)-2,4-pyrimidinediamine] | 696 nM
32 | COc1cc(Nc2nc(Nc3ccc(C)c(S(N)(=O)=O)c3)ncc2F)ccc1Cl [VI-5, N2-(3-Aminosulfonyl-4-methylphenyl)-N4-(4-chloro-3-methoxyphenyl)-5-fluoro-2,4-pyrimidinediamine] | 718 nM
33 | COc1ccc(Nc2nc(Nc3cc(C)c(Cl)c(S(N)(=O)=O)c3)ncc2F)cc1Cl [VI-17, N2-(3-Aminosulfonyl-4-chloro-5-methylphenyl)-N4-(3-chloro-4-methoxyphenyl)-5-fluoro-2,4-pyrimidinediamine] | 244 nM
34 | Cc1ccc(Nc2ncc(F)c(Nc3ccc4c(c3)NC(=O)CS4)n2)cc1S(N)(=O)=O [VII-44, N2-(3-Aminosulphonyl-4-methyl-phenyl)-5-fluoro-N4-(3-oxo-4H-benzo[1,4]thiazin-6-yl)-2,4-pyrimidinediamine] | 546 nM
35 | NS(=O)(=O)c1cccc(Nc2ncc(F)c(Nc3ccc(Cc4ccncc4)cc3)n2)c1 [III-128, N2-(3-Aminosulfonylphenyl)-5-fluoro-N4-[4-(4-pyridylmethyl)phenyl]-2,4-pyrimidinediamine p-Toluenesulfonic Acid Salt] | 139 nM
36 | Cc1ccc(Nc2ncc(F)c(Nc3ccc(C(F)(F)F)cc3)n2)cc1S(N)(=O)=O [VI-50, N2-(3-Aminosulfonyl-4-methylphenyl)-5-fluoro-N4-(4-trifluoromethylphenyl)-2,4-pyrimidinediamine] | 944 nM
37 | C#CCOc1ccc(Nc2nc(Nc3ccc(Cl)c(S(N)(=O)=O)c3)ncc2F)cc1 [VI-55, N2-(3-Aminosulfonyl-4-chlorophenyl)-5-fluoro-N4-[4-(prop-2-ynyloxy)phenyl]-2,4-pyrimidinediamine] | 625 nM
38 | C#CCOc1ccc(Nc2nc(Nc3ccc(N4CCN(C)CC4)c(S(N)(=O)=O)c3)ncc2F)cc1 [VI-70, N2-[3-Aminosulfonyl-4-(1-methylpiperazin-4-yl)phenyl]-5-fluoro-N4-[4-(prop-2-ynyloxy)phenyl]-2,4-pyrimidinediamine] | 311 nM
